Experimental data published in the supplement of paper PMC10307832.

Legend:
Assay in all cases: relative viability (nuclei count vs DMSO), 5 days (fraction); higher = more cells survive
[1] = compound: CC(O)(CS(=O)(=O)c1ccc(F)cc1)C(=O)Nc1ccc(C#N)c(C(F)(F)F)c1 [Bicalutamide] + CC(=O)c1c(C)c2cnc(Nc3ccc(N4CCNCC4)cn3)nc2n(C2CCCC2)c1=O [Palbociclib] (partner 0.5 µM)
How it was run: (§1)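 Dosing by pin tool came one day after lung cancer cell lines were seeded in 1536-well plates, using either one drug or a fixed anchor-drug dose plus five library-drug doses (not always all listed) in √10 steps. After 5 days, nuclei were counted on 4× images. Relative viability is treated-well nuclei count divided by vehicle-well nuclei count, and values are medians of duplicate plates.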

[2] = compound: C(C(=O)C(=O)O)Br [Bromopyruvate] + Cc1cc(Nc2cc(N3CCN(C)CC3)nc(Sc3ccc(NC(=O)C4CC4)cc3)n2)n[nH]1 [Tozasertib] (partner 0.1 µM)
How it was run: as §1

[3] = compound: CC(O)(CS(=O)(=O)c1ccc(F)cc1)C(=O)Nc1ccc(C#N)c(C(F)(F)F)c1 [Bicalutamide] + CC1(C)CCC(c2ccc(Cl)cc2)=C(CN2CCN(c3ccc(C(=O)NS(=O)(=O)c4ccc(N[C@H](CCN5CCOCC5)CSc5ccccc5)c(S(=O)(=O)C(F)(F)F)c4)cc3)CC2)C1 [Navitoclax] (partner 0.5 µM)
How it was run: as §1

[4] = compound: CC(O)(CS(=O)(=O)c1ccc(F)cc1)C(=O)Nc1ccc(C#N)c(C(F)(F)F)c1 [Bicalutamide] + C[C@]1(O)C[C@@H](c2nc(-c3ccc4ccc(-c5ccccc5)nc4c3)c3c(N)nccn32)C1 [Linsitinib] (partner 1 µM)
How it was run: as §1

## NCI-H1793
[1]; first compound 0.08 µM
  relative viability: 0.265
[1]; first compound 0.8 µM
  relative viability: 0.423
[1]; first compound 2.53 µM
  relative viability: 0.382
[2]; first compound 1 µM
  relative viability: 0.371
[2]; first compound 3.162 µM
  relative viability: 0.421
[2]; first compound 10 µM
  relative viability: 0.36
[2]; first compound 31.62 µM
  relative viability: 0.391
[2]; first compound 100 µM
  relative viability: 0.204
[3]; first compound 0.08 µM
  relative viability: 0.516
[3]; first compound 0.253 µM
  relative viability: 0.353
[3]; first compound 0.8 µM
  relative viability: 0.479
[3]; first compound 2.53 µM
  relative viability: 0.512
[4]; first compound 0.08 µM
  relative viability: 0.731
[4]; first compound 0.253 µM
  relative viability: 0.568
[4]; first compound 0.8 µM
  relative viability: 0.894
[4]; first compound 2.53 µM
  relative viability: 0.686

## NCI-H2085
[1]; first compound 0.08 µM
  relative viability: 0.494
[1]; first compound 0.253 µM
  relative viability: 0.465
[1]; first compound 0.8 µM
  relative viability: 0.478
[1]; first compound 2.53 µM
  relative viability: 0.468
[2]; first compound 1 µM
  relative viability: 0.821
[2]; first compound 3.162 µM
  relative viability: 0.917
[2]; first compound 10 µM
  relative viability: 0.84
[2]; first compound 31.62 µM
  relative viability: 0.558
[2]; first compound 100 µM
  relative viability: 0.311
[3]; first compound 0.08 µM
  relative viability: 1.19
[3]; first compound 0.253 µM
  relative viability: 1.17
[3]; first compound 0.8 µM
  relative viability: 1.22
[3]; first compound 2.53 µM
  relative viability: 0.902
[4]; first compound 0.08 µM
  relative viability: 0.856
[4]; first compound 0.253 µM
  relative viability: 1.04
[4]; first compound 0.8 µM
  relative viability: 0.938
[4]; first compound 2.53 µM
  relative viability: 0.794

## COR-L 105
[1]; first compound 0.08 µM
  relative viability: 0.405
[1]; first compound 0.253 µM
  relative viability: 0.407
[1]; first compound 0.8 µM
  relative viability: 0.379
[1]; first compound 2.53 µM
  relative viability: 0.379
[2]; first compound 1 µM
  relative viability: 0.36
[2]; first compound 3.162 µM
  relative viability: 0.34
[2]; first compound 10 µM
  relative viability: 0.279
[2]; first compound 31.62 µM
  relative viability: 0.352
[2]; first compound 100 µM
  relative viability: 0.435
[3]; first compound 0.08 µM
  relative viability: 0.694
[3]; first compound 0.253 µM
  relative viability: 0.696
[3]; first compound 0.8 µM
  relative viability: 0.726
[3]; first compound 2.53 µM
  relative viability: 0.703
[4]; first compound 0.08 µM
  relative viability: 0.941
[4]; first compound 0.253 µM
  relative viability: 0.93
[4]; first compound 0.8 µM
  relative viability: 0.899
[4]; first compound 2.53 µM
  relative viability: 0.815

## SK-LU-1
[1]; first compound 0.08 µM
  relative viability: 0.403
[1]; first compound 0.253 µM
  relative viability: 0.452
[1]; first compound 0.8 µM
  relative viability: 0.43
[1]; first compound 2.53 µM
  relative viability: 0.378
[2]; first compound 1 µM
  relative viability: 0.328
[2]; first compound 3.162 µM
  relative viability: 0.349
[2]; first compound 10 µM
  relative viability: 0.333
[2]; first compound 31.62 µM
  relative viability: 0.382
[2]; first compound 100 µM
  relative viability: 0.266
[3]; first compound 0.08 µM
  relative viability: 1.04
[3]; first compound 0.253 µM
  relative viability: 1.04
[3]; first compound 0.8 µM
  relative viability: 1.38
[3]; first compound 2.53 µM
  relative viability: 0.902
[4]; first compound 0.08 µM
  relative viability: 1.24
[4]; first compound 0.253 µM
  relative viability: 1.29
[4]; first compound 0.8 µM
  relative viability: 1.17
[4]; first compound 2.53 µM
  relative viability: 0.817

## LXF-289
[1]; first compound 0.08 µM
  relative viability: 0.596
[1]; first compound 0.253 µM
  relative viability: 0.543
[1]; first compound 0.8 µM
  relative viability: 0.614
[1]; first compound 2.53 µM
  relative viability: 0.592
[2]; first compound 1 µM
  relative viability: 0.184
[2]; first compound 3.162 µM
  relative viability: 0.179
[2]; first compound 10 µM
  relative viability: 0.213
[2]; first compound 31.62 µM
  relative viability: 0.152
[2]; first compound 100 µM
  relative viability: 0.172
[3]; first compound 0.08 µM
  relative viability: 0.951
[3]; first compound 0.253 µM
  relative viability: 0.952
[3]; first compound 0.8 µM
  relative viability: 0.999
[3]; first compound 2.53 µM
  relative viability: 0.931
[4]; first compound 0.08 µM
  relative viability: 0.962
[4]; first compound 0.253 µM
  relative viability: 0.92
[4]; first compound 0.8 µM
  relative viability: 1
[4]; first compound 2.53 µM
  relative viability: 0.972

## PC-3 [JPC-3]
[1]; first compound 0.08 µM
  relative viability: 0.556
[1]; first compound 0.253 µM
  relative viability: 0.576
[1]; first compound 0.8 µM
  relative viability: 0.567
[1]; first compound 2.53 µM
  relative viability: 0.552
[2]; first compound 1 µM
  relative viability: 0.906
[2]; first compound 3.162 µM
  relative viability: 0.868
[2]; first compound 10 µM
  relative viability: 0.937
[2]; first compound 31.62 µM
  relative viability: 0.841
[2]; first compound 100 µM
  relative viability: 0.892
[3]; first compound 0.08 µM
  relative viability: 0.867
[3]; first compound 0.253 µM
  relative viability: 0.775
[3]; first compound 0.8 µM
  relative viability: 0.869
[3]; first compound 2.53 µM
  relative viability: 0.91
[4]; first compound 0.08 µM
  relative viability: 0.927
[4]; first compound 0.253 µM
  relative viability: 1.02
[4]; first compound 0.8 µM
  relative viability: 0.986
[4]; first compound 2.53 µM
  relative viability: 1.02

## NCI-H1666
[1]; first compound 0.08 µM
  relative viability: 0.652
[1]; first compound 0.253 µM
  relative viability: 0.603
[1]; first compound 0.8 µM
  relative viability: 0.652
[1]; first compound 2.53 µM
  relative viability: 0.675
[2]; first compound 1 µM
  relative viability: 0.644
[2]; first compound 3.162 µM
  relative viability: 0.722
[2]; first compound 10 µM
  relative viability: 0.543
[2]; first compound 31.62 µM
  relative viability: 0.603
[2]; first compound 100 µM
  relative viability: 0.51
[3]; first compound 0.08 µM
  relative viability: 0.939
[3]; first compound 0.253 µM
  relative viability: 1.14
[3]; first compound 0.8 µM
  relative viability: 0.889
[3]; first compound 2.53 µM
  relative viability: 0.93
[4]; first compound 0.08 µM
  relative viability: 0.814
[4]; first compound 0.253 µM
  relative viability: 0.8
[4]; first compound 0.8 µM
  relative viability: 0.932
[4]; first compound 2.53 µM
  relative viability: 0.955

## NCI-H2087
[1]; first compound 0.08 µM
  relative viability: 0.222
[1]; first compound 0.253 µM
  relative viability: 0.272
[1]; first compound 0.8 µM
  relative viability: 0.237
[1]; first compound 2.53 µM
  relative viability: 0.24
[2]; first compound 1 µM
  relative viability: 0.237
[2]; first compound 3.162 µM
  relative viability: 0.284
[2]; first compound 10 µM
  relative viability: 0.234
[2]; first compound 31.62 µM
  relative viability: 0.269
[2]; first compound 100 µM
  relative viability: 0.258
[3]; first compound 0.08 µM
  relative viability: 1.15
[3]; first compound 0.253 µM
  relative viability: 1.09
[3]; first compound 0.8 µM
  relative viability: 1.1
[3]; first compound 2.53 µM
  relative viability: 0.974
[4]; first compound 0.08 µM
  relative viability: 1.03
[4]; first compound 0.253 µM
  relative viability: 1.07
[4]; first compound 0.8 µM
  relative viability: 0.95
[4]; first compound 2.53 µM
  relative viability: 0.77

## NCI-H1734
[1]; first compound 0.08 µM
  relative viability: 0.332
[1]; first compound 0.253 µM
  relative viability: 0.283
[1]; first compound 0.8 µM
  relative viability: 0.379
[1]; first compound 2.53 µM
  relative viability: 0.328
[2]; first compound 1 µM
  relative viability: 0.243
[2]; first compound 3.162 µM
  relative viability: 0.247
[2]; first compound 10 µM
  relative viability: 0.307
[2]; first compound 31.62 µM
  relative viability: 0.244
[2]; first compound 100 µM
  relative viability: 0.216
[3]; first compound 0.08 µM
  relative viability: 0.862
[3]; first compound 0.253 µM
  relative viability: 0.719
[3]; first compound 0.8 µM
  relative viability: 1.13
[3]; first compound 2.53 µM
  relative viability: 0.786
[4]; first compound 0.08 µM
  relative viability: 0.87
[4]; first compound 0.253 µM
  relative viability: 0.76
[4]; first compound 0.8 µM
  relative viability: 0.947
[4]; first compound 2.53 µM
  relative viability: 0.863
